Results: article PMC5573420, “Correlation between human ether‐a‐go‐go‐related gene channel inhibition and action potential prolongation” (British Journal of Pharmacology, 2017)
Where “and” joins values, the source holds several entries; their conditions need not be identical. Equal entries are not always repeated. Entries after “also recorded” stand apart in the source; their conditions may differ. Where two headings read alike, the source gives them in different places.

Assays:
hiPSC-CMs = assay: Optical measurement of action potential duration (APD90) in hiPSC-CMs using voltage-sensitive dye di-4-ANEPPS; conditions: for activity at 0.001 µM: read-out: Changes in APD90 in hiPSC-CMs, 1 nM, 30 min exposure; for activity at 0.03 µM: read-out: Changes in APD90 in hiPSC-CMs, 30 nM, 30 min exposure; for Maximal AP prolongation: maximal level over concentrations tested
Protocol: The plates were then incubated at 37°C, 5% CO2. Forty‐eight hours post‐thaw, 100% of the plating medium was replaced with CDI Maintenance Medium (CDI, CMC‐100‐120‐001), and further, 100% media changes were performed every 2 days after that.
Afterwards, the medium containing VSD was replaced by fresh serum‐free medium, and the cells were returned to the incubator. The multi‐well plate was placed in an environmentally controlled stage incubator (37°C, 5% CO2, water‐saturated air atmosphere) (Okolab Inc, Burlingame, CA, USA) of the CelIOPTIQ platform (Clyde Biosciences Ltd, Glasgow, Scotland). The di‐4‐ANEPPS fluorescence signal was recorded from a 0.2 × 0.2 mm area using a 40× (NA 0.6) objective lens. Excitation wavelength was 470 ± 10 nm using a light‐emitting diode (LED), and emitted light was collected by two photomultipliers (PMTs) at 510–560 and 590–650 nm respectively. LED, PMT, associated power supplies and amplifiers were supplied by Cairn Research Ltd (Kent, UK). […] A 20 s recording was then taken 30 min after exposure to the drug or vehicle with only one concentration applied per well. The records were subsequently analysed offline using proprietary software (CellOPTIQ). The procedure was repeated from four to five times, and parallel matched control (vehicle) measurements were taken on cardiomyocytes with equivalent concentrations of vehicle (DMSO). AP parameters were measured, including APD at 50, 75 and 90% repolarization (APD50, APD75 and APD90 respectively). Data are given as % change from control for the treated groups (vehicle, control and drug). This allowed a single comparison to be made at each concentration, and every experiment was performed with its own set of controls (vehicle). No data were used more than once.

Nav1.5 = Nav1.5 (Homo sapiens, UniProt Q14524); assay: Sodium current inhibition in HEK cells stably expressing Nav1.5, planar patch clamp
Protocol: (§1) Currents were low‐pass filtered at 10 kHz using the internal Bessel filter and sampled at 25 kHz. The extracellular solution for hERG current recording contained 140 mM NaCl, 4 mM KCl, 2 mM CaCl2, 1 mM MgCl2,5 mM D‐glucose and 10 mM HEPES (pH 7.4) (Sigma‐Aldrich). The intracellular solution for hERG current recording contained 50 mM KCl, 10 mM NaCl, 60 mM KF, 20 mM EGTA and 10 mM HEPES (pH 7.2). The extracellular solution for measuring sodium currents in HEK cells stably expressing the human clone of Nav1.5 (GenBank M77235) contained 4 mM KCl, 20 mM NaCl, 1.8 mM CaCl2, 0.75 mM MgCl2, 5 mM HEPES, 120 mM choline chloride and pH 7.4 using NaOH. The intracellular solution for sodium current recording contained 120 mM CsF, 20 mM CsCl, 5 mM EGTA, 5 mM HEPES and pH 7.4 using CsOH. All chemicals were obtained from Sigma‐Aldrich Chemie GmbH (Taufkirchen, Germany). The compound solutions were applied by means of the automated NPC‐16 Patchliner planar patch‐clamp platform.

[1] = biological target: Cav1.2 (rabbit α1-subunit with β2a and α2-δ1) (Oryctolagus cuniculus, UniProt P15381); assay: in vitro; conditions: rabbit
Cav1.2 (rabbit α1-subunit with β2a and α2-δ1), sequence (P15381 whole entry, other chains not shown, the tested form may be a part): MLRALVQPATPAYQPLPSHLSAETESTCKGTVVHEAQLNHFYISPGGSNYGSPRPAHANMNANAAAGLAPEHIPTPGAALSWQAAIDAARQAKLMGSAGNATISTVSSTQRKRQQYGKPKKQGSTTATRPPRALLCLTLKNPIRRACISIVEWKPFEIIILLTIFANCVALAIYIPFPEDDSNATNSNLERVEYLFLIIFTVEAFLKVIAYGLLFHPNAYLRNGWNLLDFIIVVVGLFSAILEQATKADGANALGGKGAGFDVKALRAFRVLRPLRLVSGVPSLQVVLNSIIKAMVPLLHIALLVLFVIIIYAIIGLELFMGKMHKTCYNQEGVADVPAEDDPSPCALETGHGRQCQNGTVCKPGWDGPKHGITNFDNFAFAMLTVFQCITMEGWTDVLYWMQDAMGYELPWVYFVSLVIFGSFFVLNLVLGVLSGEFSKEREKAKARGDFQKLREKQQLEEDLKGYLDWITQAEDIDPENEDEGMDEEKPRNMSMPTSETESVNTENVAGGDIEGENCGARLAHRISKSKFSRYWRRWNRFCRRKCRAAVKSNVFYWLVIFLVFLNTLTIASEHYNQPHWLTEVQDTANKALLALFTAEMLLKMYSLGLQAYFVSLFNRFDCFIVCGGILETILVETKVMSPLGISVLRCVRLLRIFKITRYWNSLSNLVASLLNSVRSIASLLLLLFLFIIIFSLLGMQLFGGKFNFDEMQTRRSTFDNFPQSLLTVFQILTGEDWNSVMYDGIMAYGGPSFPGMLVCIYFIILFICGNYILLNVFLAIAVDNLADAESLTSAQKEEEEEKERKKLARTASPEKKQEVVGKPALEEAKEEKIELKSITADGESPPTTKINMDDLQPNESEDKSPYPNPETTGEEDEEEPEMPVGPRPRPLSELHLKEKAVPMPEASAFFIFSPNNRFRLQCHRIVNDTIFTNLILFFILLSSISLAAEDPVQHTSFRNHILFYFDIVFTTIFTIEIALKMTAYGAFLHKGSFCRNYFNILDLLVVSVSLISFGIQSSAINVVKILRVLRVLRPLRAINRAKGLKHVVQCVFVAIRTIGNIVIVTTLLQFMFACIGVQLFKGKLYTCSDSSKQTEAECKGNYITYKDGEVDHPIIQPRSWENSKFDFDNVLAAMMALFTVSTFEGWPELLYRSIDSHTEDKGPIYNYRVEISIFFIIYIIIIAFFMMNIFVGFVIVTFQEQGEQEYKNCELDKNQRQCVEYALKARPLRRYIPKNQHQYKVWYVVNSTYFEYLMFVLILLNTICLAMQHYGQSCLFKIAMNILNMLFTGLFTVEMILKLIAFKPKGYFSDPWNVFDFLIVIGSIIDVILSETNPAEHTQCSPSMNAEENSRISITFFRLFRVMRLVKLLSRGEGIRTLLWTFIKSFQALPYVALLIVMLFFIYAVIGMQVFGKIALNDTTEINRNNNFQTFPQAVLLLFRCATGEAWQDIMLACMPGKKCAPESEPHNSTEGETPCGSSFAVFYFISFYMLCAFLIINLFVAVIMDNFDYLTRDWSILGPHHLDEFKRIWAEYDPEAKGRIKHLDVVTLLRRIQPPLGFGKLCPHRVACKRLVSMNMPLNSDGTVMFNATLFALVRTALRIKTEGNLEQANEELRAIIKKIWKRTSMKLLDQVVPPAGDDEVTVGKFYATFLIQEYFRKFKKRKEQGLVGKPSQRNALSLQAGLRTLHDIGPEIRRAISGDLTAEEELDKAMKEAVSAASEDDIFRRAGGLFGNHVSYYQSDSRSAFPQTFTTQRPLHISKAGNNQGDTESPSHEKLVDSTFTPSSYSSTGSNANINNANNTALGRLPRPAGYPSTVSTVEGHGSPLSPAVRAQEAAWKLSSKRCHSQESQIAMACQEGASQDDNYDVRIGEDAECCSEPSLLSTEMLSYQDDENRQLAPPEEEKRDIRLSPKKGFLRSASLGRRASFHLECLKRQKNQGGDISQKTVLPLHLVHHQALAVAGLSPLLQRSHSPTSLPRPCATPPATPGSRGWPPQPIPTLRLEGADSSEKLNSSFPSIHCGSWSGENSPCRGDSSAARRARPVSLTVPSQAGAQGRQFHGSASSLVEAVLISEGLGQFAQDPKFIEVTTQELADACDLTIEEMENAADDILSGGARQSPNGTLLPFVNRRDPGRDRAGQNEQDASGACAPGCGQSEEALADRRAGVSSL
Cav1.2 (rabbit α1-subunit with β2a and α2-δ1), sequence (P13806 27-960 partner limits assumed, other chains not shown): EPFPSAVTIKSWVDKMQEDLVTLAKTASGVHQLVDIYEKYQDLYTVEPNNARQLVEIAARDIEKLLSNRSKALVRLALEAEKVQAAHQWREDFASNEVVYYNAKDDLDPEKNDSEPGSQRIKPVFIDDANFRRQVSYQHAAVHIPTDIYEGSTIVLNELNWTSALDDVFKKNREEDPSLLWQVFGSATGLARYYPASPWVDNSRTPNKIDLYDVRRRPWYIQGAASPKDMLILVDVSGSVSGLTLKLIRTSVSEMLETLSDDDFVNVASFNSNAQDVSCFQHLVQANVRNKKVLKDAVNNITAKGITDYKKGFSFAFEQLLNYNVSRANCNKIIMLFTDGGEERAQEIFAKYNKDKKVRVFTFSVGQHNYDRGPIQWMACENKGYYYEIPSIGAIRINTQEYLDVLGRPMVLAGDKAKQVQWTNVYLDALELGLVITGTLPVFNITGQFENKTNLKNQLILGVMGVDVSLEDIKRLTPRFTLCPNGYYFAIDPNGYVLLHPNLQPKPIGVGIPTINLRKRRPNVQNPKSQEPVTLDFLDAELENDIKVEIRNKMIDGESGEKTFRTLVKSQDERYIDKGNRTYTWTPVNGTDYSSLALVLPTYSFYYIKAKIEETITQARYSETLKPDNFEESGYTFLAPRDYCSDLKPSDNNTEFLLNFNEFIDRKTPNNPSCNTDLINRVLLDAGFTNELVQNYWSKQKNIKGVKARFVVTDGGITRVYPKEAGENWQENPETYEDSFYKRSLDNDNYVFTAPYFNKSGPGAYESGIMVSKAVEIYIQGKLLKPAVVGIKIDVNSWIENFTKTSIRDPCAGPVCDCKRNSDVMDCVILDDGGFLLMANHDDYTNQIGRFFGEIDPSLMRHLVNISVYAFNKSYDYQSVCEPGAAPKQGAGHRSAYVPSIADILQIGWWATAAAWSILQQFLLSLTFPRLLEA
Cav1.2 (rabbit α1-subunit with β2a and α2-δ1), sequence (P13806 961-1106 partner limits assumed, other chains not shown): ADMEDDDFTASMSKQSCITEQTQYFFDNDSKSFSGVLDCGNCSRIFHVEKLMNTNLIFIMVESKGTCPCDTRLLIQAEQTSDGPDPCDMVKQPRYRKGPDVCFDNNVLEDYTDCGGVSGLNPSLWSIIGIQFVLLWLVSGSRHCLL
Protocol: (§2) The transfection of tsA‐201 cells was performed using the FUGENE6 Transfection Reagent (Roche Diagonstics GmbH, Mannheim, Germany) following standard protocols. The tsA‐201 cells were used until passage number 15. […] The extracellular bath solution (in mM: BaCl2 20, MgCl2 1, HEPES 10, choline‐Cl 90) was titrated to pH 7.4 with methanesulfonic acid. […] The drugs were applied to cells under voltage clamp using a microminifold perfusion system. Ca^2+ channel block was estimated as peak IBa inhibition during a train of short (50 ms) test pulses from −80 mV at a frequency of 0.2 Hz. Patch clamp experiments to study hERG, Nav1.5 and Cav1.2 currents were performed at room temperature (22–25°C). All data were digitized and saved to disc. Current traces were filtered at 5 kHz and sampled at 10 kHz. The pClamp software package (Version 7.0 Axon Instruments, Inc.) was used for data acquisition and preliminary analysis. Microcal Origin 7.0 was used for analysis, and sigmoidal curves were fitted using the Hill equation.
(§3) Use‐dependent channel inhibition was studied during trains of 1 Hz and 50 ms test pulses (from −80 to +10 mV). After the application of 20 test pulses in control (absence of drug), the cells were incubated for 3 min with drug at rest. Peak current inhibition during the first pulse (1st, Figure 6C) in the presence of the drug reflects ‘resting state’ block. Additional current inhibition during a subsequently applied pulse train illustrates use‐dependent block. Peak current inhibition in control and drug are compared in Figure 6D.

[2] = biological target: rabbit CaV1.2 α1-subunit with β2a and α2-δ1 (Oryctolagus cuniculus, UniProt P15381); assay: Barium current (IBa) inhibition through Cav1.2 in transfected tsA-201 cells, manual patch clamp
rabbit CaV1.2 α1-subunit with β2a and α2-δ1, sequence (P15381 whole entry, other chains not shown): as the sequence (P15381 whole entry, other chains not shown, the tested form may be a part) above
rabbit CaV1.2 α1-subunit with β2a and α2-δ1, sequence (P13806 27-960 partner limits assumed, other chains not shown): as the sequence (P13806 27-960 partner limits assumed, other chains not shown) above
rabbit CaV1.2 α1-subunit with β2a and α2-δ1, sequence (P13806 961-1106 partner limits assumed, other chains not shown): as the sequence (P13806 961-1106 partner limits assumed, other chains not shown) above
Protocol: as §2, §3

hERG potassium channels = conditions: cited from earlier work
hERG channels = hERG channels (Homo sapiens, UniProt Q12809); assay: hERG current inhibition, automated planar patch clamp in HEK293 cells stably expressing hERG
hERG channels, sequence (Q12809 whole entry): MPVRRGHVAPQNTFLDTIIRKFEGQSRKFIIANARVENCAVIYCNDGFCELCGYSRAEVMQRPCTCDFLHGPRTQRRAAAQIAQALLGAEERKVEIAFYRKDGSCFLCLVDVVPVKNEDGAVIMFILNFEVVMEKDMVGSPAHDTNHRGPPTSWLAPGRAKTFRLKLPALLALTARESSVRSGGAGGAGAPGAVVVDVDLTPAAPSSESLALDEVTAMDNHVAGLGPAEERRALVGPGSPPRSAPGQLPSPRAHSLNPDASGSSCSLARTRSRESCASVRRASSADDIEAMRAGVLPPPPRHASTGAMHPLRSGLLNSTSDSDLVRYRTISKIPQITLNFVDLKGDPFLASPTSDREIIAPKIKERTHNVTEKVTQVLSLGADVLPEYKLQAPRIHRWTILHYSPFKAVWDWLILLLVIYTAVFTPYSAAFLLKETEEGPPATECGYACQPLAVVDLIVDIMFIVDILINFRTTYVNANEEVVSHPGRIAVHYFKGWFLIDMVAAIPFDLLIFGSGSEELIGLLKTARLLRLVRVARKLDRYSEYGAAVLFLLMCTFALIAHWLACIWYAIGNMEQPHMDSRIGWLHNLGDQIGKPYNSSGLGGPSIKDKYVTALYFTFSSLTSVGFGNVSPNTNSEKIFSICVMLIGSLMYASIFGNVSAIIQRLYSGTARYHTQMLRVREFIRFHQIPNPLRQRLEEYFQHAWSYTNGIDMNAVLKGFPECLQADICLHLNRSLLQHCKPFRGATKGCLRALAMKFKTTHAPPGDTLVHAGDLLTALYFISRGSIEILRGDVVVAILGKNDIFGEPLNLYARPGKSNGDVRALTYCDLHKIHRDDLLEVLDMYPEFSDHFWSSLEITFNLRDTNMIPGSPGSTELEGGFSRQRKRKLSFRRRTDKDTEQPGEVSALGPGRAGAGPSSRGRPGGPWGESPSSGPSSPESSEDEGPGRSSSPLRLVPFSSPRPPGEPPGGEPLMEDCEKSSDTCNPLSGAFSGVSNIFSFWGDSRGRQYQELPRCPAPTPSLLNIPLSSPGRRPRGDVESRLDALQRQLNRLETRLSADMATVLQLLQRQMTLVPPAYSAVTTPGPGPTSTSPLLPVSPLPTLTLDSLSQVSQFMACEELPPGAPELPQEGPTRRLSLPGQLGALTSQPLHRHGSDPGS
Protocol: as §1
Data are presented as mean ± SEM for at least five cells from two different batches or for three independent measurements with HEK293 cells.
The concentration–inhibition relationships were analysed by plotting the normalized values of peak tail current versus peak tail steady current in the presence of the respective cumulatively applied compound concentrations (Figure 4B, C). Data points were fitted using Hill equation.

[3] = Homo sapiens, 0.5 h, read-out: Changes in APD90 in hiPSC-CMs
[4] = Homo sapiens, read-out: D150 (concentration that prolongs the AP by 50%), APD90 in hiPSC-CMs
[5] = read-out: Ki binding studies, radioligand binding, ref Shagufta et al 2009
[6] = Homo sapiens, 0.5 h, read-out: Changes in APD90 in hiPSC-CMs, 100 nM, 30 min exposure
[7] = Homo sapiens, read-out: D150 (concentration that prolongs the AP by 50%)
[8] = Homo sapiens, 0.5 h, read-out: Changes in APD90 in hiPSC-CMs, 10 nM, 30 min exposure

Compound | activity at 0.01 µM (hiPSC-CMs; [3]) [%] | activity at 0.1 µM (hiPSC-CMs; [3]) [%] | activity at 0.3 µM (hiPSC-CMs; [3]) [%] | activity at 1 µM (hiPSC-CMs; [3]) [%] | EC (50% APD prolongation) (hiPSC-CMs; [4]) [µM] | Incidence of EADs (hiPSC-CMs; hiPSC-CMs) | IC50 (hERG channels) [nM] | activity at 0.001 µM (hiPSC-CMs; Homo sapiens, 0.5 h) [%] | activity at 0.03 µM (hiPSC-CMs; Homo sapiens, 0.5 h) [%] | EC (50% APD prolongation) (hiPSC-CMs; [7]) [µM] | Maximal AP prolongation (hiPSC-CMs; hiPSC-CMs) [%] | activity at 0.01 µM (hiPSC-CMs; [8]) [%] | other results
Cc1ccc(OCCN(C)CCc2ccccc2)cc1 [Dofe43] | 167 | 156 | 175 | 390 | 0.0993 | without (if any) incidence of EADs | – | – | – | – | – | – | –
CN(CCOc1ccc([N+](=O)[O-])cc1)CCc1ccccc1 [Dofe45] | 71 | 89 | 95 | 215 | 0.538 | without (if any) incidence of EADs | – | – | – | – | – | – | IC50 (Nav1.5; Nav1.5 IC50 (peak INa inhibition), holding potential -140 mV, 0.2 Hz): 69700 ± 1000 nM; IC50 (Nav1.5; Nav1.5 IC50 used for AP simulation, value entered in in silico hiPSC-CM AP model (Figure 8C)): 8900 nM and 10000 nM; IC50 (Nav1.5; human, pH 7.4, Nav1.5 IC50 (peak INa inhibition)): 6400 ± 1000 nM; IC50 ([1]; pH 7.4, Cav1.2 IC50 (peak IBa inhibition)): 190 ± 3 nM; IC50 ([1]; pH 7.4, Cav1.2 IC50 used for AP simulation): 200 nM; Peak current decay after 20 pulses at 1 Hz (use-dependent block) ([2]; 100 nM, 50 ms pulses from -80 to +10 mV, control 12 ± 2%): 42 ± 6%; Resting state and use-dependent block of Cav1.2 ([2]; 1 Hz trains of 50 ms pulses after 3 min incubation at rest): pronounced resting state block and additional use‐dependent block; Cav1.2 IC50 (peak IBa inhibition) ([2]; rabbit, pH 7.4): 192 ± 28 nM; Effect on APD90 / AP prolongation (in words) (hiPSC-CMs; hiPSC-CMs): only slightly prolonged the AP; also recorded: slightly prolonged the AP at high concentrations
CCN(CCOc1ccc([N+](=O)[O-])cc1)CCc1ccc([N+](=O)[O-])cc1 [Dofe54] | – | – | – | – | – | incidence of EADs at the higher concentrations | 2.6 ± 0.4 | 107 | 702 | 0.0043 | ≤ 1000 | – | Ki (hERG potassium channels; [5]): 1.2 ± 0.6 nM; activity at 0.1 µM (hiPSC-CMs; [6]): 710%
O=[N+]([O-])c1ccc(CCN(CCF)CCOc2ccc([N+](=O)[O-])cc2)cc1 [Dofe60] | – | – | – | – | – | incidence of EADs at the higher concentrations | – | 95 | 185 | 0.0213 | ≤ 1000 | 112 | activity at 0.1 µM (hiPSC-CMs; [6]): 771%; activity at 0.3 µM (hiPSC-CMs; Homo sapiens, 0.5 h, read-out: Changes in APD90 in hiPSC-CMs, 300 nM, 30 min exposure): 413%
CN(CCCOc1ccc([N+](=O)[O-])cc1)Cc1ccc([N+](=O)[O-])cc1 [Dofe78] | 116 | 420 | 300 | 417 | 0.02 | incidence of EADs at the higher concentrations | 28.2 ± 4.9 | – | – | – | ≤ 1000 | – | Ki (hERG potassium channels; [5]): 5.1 ± 1.9 nM
CN(CCCCOc1ccc([N+](=O)[O-])cc1)CCc1ccc([N+](=O)[O-])cc1 [Dofe81] | – | – | – | – | – | incidence of EADs at the higher concentrations | 10.7 | 117 | 858 | 0.0025 | ≤ 1000 | 389 | Ki (hERG potassium channels): 1.8 ± 1.6 nM
CN(CCOc1ccc(NS(C)(=O)=O)cc1)CCc1ccc(NS(C)(=O)=O)cc1 [Dofetilide, reference compound] | – | – | – | – | 4e-05 | incidence of EADs at concentrations of 10, 30 and 100 nM | – | 246 | 827 | – | – | 641 | Ki (hERG potassium channels): 4.1 ± 0.9 nM; Spontaneous rate of myocyte contraction (hiPSC-CMs; 100 nM, hiPSC-CMs): dramatically increased; activity at 0.0001 µM (hiPSC-CMs; Homo sapiens, 0.5 h, read-out: Changes in APD90 in hiPSC-CMs, 0.1 nM, 30 min exposure): 191%
